Data reported in patent publication US12104178B2, “DHFR tunable protein regulation” (Obsidian Therapeutics, Inc., priority 2017, dated 2024).
Read-outs that look alike come from different tables or passages of the source.

Columns and labels:
HEK-293T cells = test: DD-IL15 induction, human IL15 ELISA (Table 80); format: cell-based; details: DD-IL15 (OT-IL15-002, ecDHFR-IL15) in HEK-293T, TMP 24 hrs
Protocol: To test ligand dependent IL15 production, 1 million HEK-293T cells were plated in a 6-well plate in growth media containing DMEM and 10% FBS and incubated overnight at 37° C. at 5% CO2. Cells were then transfected with 100 ng of OT-IL15-001(constitutive) or OT-IL15-002 (ecDHFR-IL15) using Lipofectamine 2000 and incubated for 48 hrs. […] Media was collected and the undiluted samples or samples diluted 4, 16, 256, 1024, 4096 or 16384-fold were tested using human IL15 ELISA. The stabilization ratio was defined as fold change in IL15 expression with ligand treatment compared to treatment with DMSO (i.e. in the absence of ligand) with the same construct.

T cells [1] = details: human, 160 μM
Protocol: The percentage of divided cells within the CD4 and the CD8 populations of T cells was measured using FACS.

in vivo = details: Balb/C nu/nu, mouse, plasma
T cells [2] = test: TMP dose and exposure time on membrane bound IL15 expression (Table 89); format: cell-based; details: T-cell
Protocol: For this purpose, T cells were activated with CD3/CD28 beads at 3:1 bead to T cell ratio in 24-well plates for 24 hrs. Lentivirus was added to wells. After 24 hrs, fresh media was added every 2-3 days to expand cells while maintaining cells at 0.5-1×10^6/ml. On day 11 of expansion.

NK-92 cells [3] = test: NK-92 activation markers with IL15 (Tables 82, 84); format: cell-based; details: for pSTAT5 (15 mins) / pSTAT5 (60 mins) / CD69 / CXCR4 / Granzyme B / IFNgamma / Perforin: NK-92 cells, fold change; for pSTAT5 (15 mins) / pSTAT5 (60 mins): FACS; for CD69 / CXCR4 / Granzyme B / IFNgamma / Perforin: activation marker by FACS
Protocol: (§1) The dependency of the NK-92 cells on cytokines for activation was tested. […] The cells were cultured for 18 hours in the presence of IL12 (10 ng/ml) or varying concentrations of IL15 (100 ng/ml, 20 ng/ml, 4 ng/ml, 0.8 ng/ml, 0.16 ng/ml, 0.032 ng/ml, 0.0064 ng/ml and 0.00128 ng/ml). NK-92 cell activation in response to IL15 and IL12 treatment was evaluated by FACS analysis using a panel of markers whose increased expression is associated with NK activation. These include NKG2D, CD71, CD69; chemokine receptors such as CCR5, CXCR4, and CXCR3, Perforin, Granzyme B and Interferon gamma (IFNg). Prior to FACS analysis for IFNg, cells were cultured for 4 hours with Brefeldin A. NK cells respond to external stimuli such as cytokines in their environment through the phosphorylation of proteins JAK/STAT, ERK, and p38/MAPK pathways which are important for cell activation, signaling and differentiation pathways. The phosphorylation of AKT, STAT3 and STAT5 in response to cytokine addition was measured by FACS. Since phosphorylation events are transient NK-92 cells were treated with the cytokines for 15 or 60 minutes, prior to the analysis.
as §1, with “of” for “of IL12 (10 ng/ml) or”, “IL15” for “IL15 and IL12”, “Perform,” for “Perforin,”

NK-92 cells [4] = test: Cytokine dependent proliferation of NK-92, Jurkat and SupT1 cells; format: cell-based; details: 3 days
Protocol: The dependency of immune cells on cytokines for proliferation was tested in NK-92 cells and T cell lines Jurkat cells and SupT1 cells. Cells were seeded at 40,000 per well and cultured in the presence of IL2 or IL15 for 3 days.

Compound: COc1cc(Cc2cnc(N)nc2N)cc(OC)c1OC [TMP, Trimethoprim]
- IL15 ELISA reading, 10 μM TMP (HEK-293T cells; media dilution 1-fold): 0.820
- IL15 ELISA reading, 10 μM TMP (HEK-293T cells; media dilution 4-fold): 0.287
- IL15 ELISA reading, 10 μM TMP (HEK-293T cells; media dilution 16-fold): 0.116
- IL15 ELISA reading, 10 μM TMP (HEK-293T cells; media dilution 64-fold): 0.073
- IL15 ELISA reading, 10 μM TMP (HEK-293T cells; media dilution 256-fold): 0.057
- IL15 ELISA reading, 10 μM TMP (HEK-293T cells; media dilution 1024-fold): 0.048
- IL15 ELISA reading, 10 μM TMP (HEK-293T cells; media dilution 4096-fold): 0.049
- IL15 ELISA reading, 10 μM TMP (HEK-293T cells; media dilution 16384-fold): 0.049
- Reduction in the percentage of divided cells (T cells [1]): 70-90%
- concentration at 0.083 h (in vivo; 30 mg/kg): 25.7 µM
- concentration at 0.25 h (in vivo; 30 mg/kg): 19.6 µM
- concentration at 0.5 h (in vivo; 30 mg/kg): 9.84 µM
- concentration at 1 h (in vivo; 30 mg/kg): 2.55 µM
- concentration at 2 h (in vivo; 30 mg/kg): 1.19 µM
- concentration at 4 h (in vivo; 30 mg/kg): 0.16 µM
- concentration at 8 h (in vivo; 30 mg/kg): 0.04 µM
- concentration at 0.083 h (in vivo; 100 mg/kg): 81.5 µM
- concentration at 0.25 h (in vivo; 100 mg/kg): 78.1 µM
- concentration at 0.5 h (in vivo; 100 mg/kg): 58.8 µM
- concentration at 1 h (in vivo; 100 mg/kg): 27.6 µM
- concentration at 2 h (in vivo; 100 mg/kg): 2.97 µM
- concentration at 8 h (in vivo; 100 mg/kg): 0.56 µM
- concentration at 24 h (in vivo; 100 mg/kg): 0.01 µM
- concentration at 0.083 h (in vivo; 300 mg/kg): 117 µM
- concentration at 0.25 h (in vivo; 300 mg/kg): 137 µM
- concentration at 0.5 h (in vivo; 300 mg/kg): 128 µM
- concentration at 1 h (in vivo; 300 mg/kg): 80 µM
- concentration at 2 h (in vivo; 300 mg/kg): 32.6 µM
- concentration at 4 h (in vivo; 300 mg/kg): 1.03 µM
- concentration at 8 h (in vivo; 300 mg/kg): 0.3 µM
- concentration at 24 h (in vivo; 300 mg/kg): 0.01 µM
- EC50 (T cells [2]; 6 h, read-out: EC50, uM (% IL15 + IL15Ra+)): 0.021 µM
- EC50 (T cells [2]; 6 h, read-out: EC50, uM (total IL15 MFI)): 0.03 µM
- EC90 (T cells [2]; 6 h, read-out: EC90, uM (% IL15 + IL15Ra+)): 0.81 µM
- EC90 (T cells [2]; 6 h, read-out: EC90, uM (total IL15 MFI)): 0.88 µM
- EC50 (T cells [2]; 24 h, read-out: EC50, uM (% IL15 + IL15Ra+)): 0.035 µM
- EC50 (T cells [2]; 24 h, read-out: EC50, uM (total IL15 MFI)): 0.063 µM
- EC90 (T cells [2]; 24 h, read-out: EC90, uM (% IL15 + IL15Ra+)): 0.255 µM
- EC90 (T cells [2]; 24 h, read-out: EC90, uM (total IL15 MFI)): 0.75 µM
- EC50 (T cells [2]; read-out: EC50, uM (% IL15 + IL15Ra+)): 11.5 µM
- EC50 (T cells [2]; read-out: EC50, uM (total IL15 MFI)): 11.1 µM
- EC90 (T cells [2]; read-out: EC90, uM (% IL15 + IL15Ra+)): 59.6 µM
- EC90 (T cells [2]; read-out: EC90, uM (total IL15 MFI)): 66.9 µM
- TMP concentration in the plasma at early time points (100 mg/kg): 50 to 100 µM
- TMP concentration in the plasma at early time points (300 mg/kg): 100 to 150 µM
- TMP levels in the plasma 4 hours after dosing (all doses): Virtually no TMP levels were detected

Compound: IL15: cytokine added to NK-92 cells
- NK-92 activation marker expression (NK-92 cells [3]; IL15 0.00128-100 ng/ml, 18 h): increase in the expression of CD69, CXCR4, Perforin, Granzyme B, and IFNg
- pSTAT5 (15 mins) (NK-92 cells [3]; IL15 0.00128 ng/ml): 0.99
- pSTAT5 (60 mins) (NK-92 cells [3]; IL15 0.00128 ng/ml): 1.04
- CD69 (NK-92 cells [3]; IL15 0.00128 ng/ml): 1.07
- CXCR4 (NK-92 cells [3]; IL15 0.00128 ng/ml): 1.15
- Granzyme B (NK-92 cells [3]; IL15 0.00128 ng/ml): 0.88
- IFNgamma (NK-92 cells [3]; IL15 0.00128 ng/ml): 1.19
- Perforin (NK-92 cells [3]; IL15 0.00128 ng/ml): 0.85
- pSTAT5 (15 mins) (NK-92 cells [3]; IL15 0.0064 ng/ml): 1.03
- pSTAT5 (60 mins) (NK-92 cells [3]; IL15 0.0064 ng/ml): 1.26
- CD69 (NK-92 cells [3]; IL15 0.0064 ng/ml): 1.11
- CXCR4 (NK-92 cells [3]; IL15 0.0064 ng/ml): 1.19
- Granzyme B (NK-92 cells [3]; IL15 0.0064 ng/ml): 0.78
- IFNgamma (NK-92 cells [3]; IL15 0.0064 ng/ml): 0.85
- Perforin (NK-92 cells [3]; IL15 0.0064 ng/ml): 0.79
- pSTAT5 (15 mins) (NK-92 cells [3]; IL15 0.032 ng/ml): 1.23
- pSTAT5 (60 mins) (NK-92 cells [3]; IL15 0.032 ng/ml): 1.67
- CD69 (NK-92 cells [3]; IL15 0.032 ng/ml): 1.05
- CXCR4 (NK-92 cells [3]; IL15 0.032 ng/ml): 1.14
- Granzyme B (NK-92 cells [3]; IL15 0.032 ng/ml): 0.92
- IFNgamma (NK-92 cells [3]; IL15 0.032 ng/ml): 0.95
- Perforin (NK-92 cells [3]; IL15 0.032 ng/ml): 0.92
- pSTAT5 (15 mins) (NK-92 cells [3]; IL15 0.8 ng/ml): 1.76
- pSTAT5 (60 mins) (NK-92 cells [3]; IL15 0.8 ng/ml): 2.17
- CD69 (NK-92 cells [3]; IL15 0.8 ng/ml): 1.18
- CXCR4 (NK-92 cells [3]; IL15 0.8 ng/ml): 2.10
- Granzyme B (NK-92 cells [3]; IL15 0.8 ng/ml): 1.09
- IFNgamma (NK-92 cells [3]; IL15 0.8 ng/ml): 1.92
- Perforin (NK-92 cells [3]; IL15 0.8 ng/ml): 1.16
- pSTAT5 (15 mins) (NK-92 cells [3]; IL15 4 ng/ml): 1.81
- pSTAT5 (60 mins) (NK-92 cells [3]; IL15 4 ng/ml): 2.35
- CD69 (NK-92 cells [3]; IL15 4 ng/ml): 1.59
- CXCR4 (NK-92 cells [3]; IL15 4 ng/ml): 3.03
- Granzyme B (NK-92 cells [3]; IL15 4 ng/ml): 1.16
- IFNgamma (NK-92 cells [3]; IL15 4 ng/ml): 2.76
- Perforin (NK-92 cells [3]; IL15 4 ng/ml): 1.28
- pSTAT5 (15 mins) (NK-92 cells [3]; IL15 20 ng/ml): 1.96
- pSTAT5 (60 mins) (NK-92 cells [3]; IL15 20 ng/ml): 2.35
- CD69 (NK-92 cells [3]; IL15 20 ng/ml): 2.10
- CXCR4 (NK-92 cells [3]; IL15 20 ng/ml): 3.62
- Granzyme B (NK-92 cells [3]; IL15 20 ng/ml): 1.40
- IFNgamma (NK-92 cells [3]; IL15 20 ng/ml): 5.55
- Perforin (NK-92 cells [3]; IL15 20 ng/ml): 1.57
- pSTAT5 (15 mins) (NK-92 cells [3]; IL15 100 ng/ml): 1.98
- pSTAT5 (60 mins) (NK-92 cells [3]; IL15 100 ng/ml): 2.34
- CD69 (NK-92 cells [3]; IL15 100 ng/ml): 1.91
- CXCR4 (NK-92 cells [3]; IL15 100 ng/ml): 3.87
- Granzyme B (NK-92 cells [3]; IL15 100 ng/ml): 1.48
- IFNgamma (NK-92 cells [3]; IL15 100 ng/ml): 9.00
- Perforin (NK-92 cells [3]; IL15 100 ng/ml): 1.67
- NK-92 cell numbers (NK-92 cells [4]): increased cell numbers
